Experimental data as given in patent US20090209605A1, “NEMATICIDAL COMPOSITIONS” (Devgen N.V., priority 2004, published 2009).

Legend:
Format in all cases: in vivo
Meloidogyne incognita = experiment: Root infestation on agar plate: root knot count on potato microplant roots; conditions: 60 μM in agar, galls counted 5 weeks after inoculation, four replicates
Method: 9 cm petri dishes were filled with a 15 ml agar. One stem cutting of a potato microplant (Solanum tuberosum cv. Desirée) was placed on top of the agar layer. After 2 to 3 weeks of incubation at 20° C., the root system was sufficiently developed to be inoculated.
The test compounds (see Table 1) were added 2 days before inoculation by way of spreading a 2 ml DMSO-solution with the compound over the agar and allowing the compound to diffuse in the agar during two days at constant temperature of 20° C. During incubation, the plates are protected from light in a dark incubator. The resulting concentration of each compound in each agar plate was 60 μM.
After incubation, approximately 400 axenic juveniles of Meloidogyne incognita species were added to the plate.
The plates were incubated in the dark at a constant temperature of 20° C. and 5 weeks after inoculation the number of galls formed on the roots were determined by counting. Also any toxic effect of the test compounds on the roots was recorded. 8 weeks after inoculation the plates were stored at low temperature.
Each compound was tested in four replicates. Positive controls were treated with different concentrations of Aldicarb, a known nematicide. Negative controls included 5 replicates of double negative controls (no compound, no nematode), 5 replicates of single negative controls (no compound, with nematode) and 5 replicates of DMSO controls (DMSO solution, with nematode).

Heterodera nematode = experiment: Pot Assay 3: Heterodera infection of sugar beet, crop vigor and crop height; conditions: infested soil
Description: The soil used in this assay originated from a Heterodera nematode infested sugar plot of which the infestation was confirmed by means of several soil analyses. Each pot was filled up with a soil mixture composed as follows: a) the infested soil was constituted by silt loam soil (about 600 g/pot) mixed with sterile peat (about 600 g/pot) and sterile cork (about 200 g/pot); b) the sterile soil was instead constituted only by sterile peat (1200 g/pot) and sterile cork (200 g/pot).
(§1) Each compound or compound mixture as described herein was tested in 4 different rates with 4 replicates per rate. One pot per replicate was used in which 18 beava sugar beet seeds (variety GEA (KWS)) were sown. After crop germination, the number of plants was reduced to 10 plants. The 4 rates added to the soil of the tested compounds or compound mixtures were 0.05 mg, 0.20 mg, 1 mg and 5 mg. These amounts translate to field application rates respectively as 30, 120, 600 and 3000 g per hectare.
Efficacy of the compounds described herein as nematicide was measured by visual inspection of the crop vigor and the crop height. The crop vigor evaluation is based on a 0-100 scale, where 0 is “no vigor” and 100 is “maximum vigor”. The crop height development is based on a measurement, in cm, per plant, excluding the root system.
Positive control plants were treated with Oxamyl (Vydate 5 G, 5% gr) at a rate of 40 kg fp per ha. Negative controls involved single negative controls (no compound, with nematode infested soil; referenced as “Untreated 1”) and double negative controls (no compound, sterile soil; referenced as “Untreated 2”).

[1] = tested on: Meloidogyne incognita nematodes; experiment: Pot Assay 1: Meloidogyne infection of potato, egg masses/galls on roots; conditions: potato in pot, week 8 after inoculation
Method: 500 ml clay pots were filled with 400 ml of silver sand. One tuber of potato ( Solanum tuberosum cv. Bintje) was planted in the sand. After 2 to 3 weeks incubation, the potato plant was sufficiently developed to be inoculated.
Plants were grown under the usual standard greenhouse conditions at 14° C.-18° C., with 16 hours light and 8 hours dark and 80-90% relative humidity. The pots were watered using individual drippers and fertilizers were added under the form of macro- and micro nutrients according to plant growth requirements. When needed, the plants were sprayed with fungicides and insecticides.
The compounds as described herein were added one day before inoculation. The compounds were dissolved in a 20 ml DMSO-solution and spread over the sand surface. The final concentration is calculated under the assumption that the compound is diffused entirely in the pot. This process occurred during two days at the normal greenhouse conditions described above.
After compound incubation, approximately 1500 juveniles of Meloidogyne incognita nematodes were added to the pots.
The pots were incubated at the described greenhouse conditions until nematode development was completed. At week 8 after inoculation the number of galls formed on the roots was counted after washing off the sandy substrate. Also the effect of the compound on the plant development was recorded.
Every compound was tested in three replicates. Positive control plants were treated with different concentrations of aldicarb, a known nematicide. Negative controls involved 12 replicates of double negative controls (no compound, no nematode), 12 replicates of single negative controls (no compound, no DMSO, with nematode), 24 replicates of DMSO controls (DMSO solution, with nematode).
As assessment of the root development was taken into account.

[2] = tested on: sugar beet (variety GEA (KWS)); experiment: Pot Assay 3: phytotoxicity, number of sugar beet plants emerged
Method: as §1
Phytotoxicity assessments were carried by assessing any possible effects of the chemicals on the crop, such as chlorosis, yellowing, stunting, in comparison to the untreated control without nematodes.

Meloidogyne nematodes = experiment: Pot Assay 2: Meloidogyne infection of tomato, % infestation of roots; conditions: tomato in infested soil
Method: The soil used in this assay originated from a plot, heavily infested with Meloidogyne nematodes. Part of this soil was sterilized by autoclaving and was used as negative control. Sandy soil, which was not infested with nematodes, was pursued from a commercial source.
Plastic seedling trays with wells of 60 ml capacity were filled with about 40 ml of soil per well. 5 ml of water per well was used for irrigation.
Compounds as described herein were tested in 4 different rates and with 12 replicates for each concentration. The compounds as described herein were stored as dry films of 4 different concentrations. The day of the application of the compounds, all the dry films were dissolved in 60 ml water and poured into the 12 replicate wells: 5 ml per well. Every tray of 12 wells was identified with a label, indicating compound and concentration used. The 4 final rates in the soil of the tested compound were approximately 0.05 mg, 0.20 mg, 1 mg and 5 mg. These amounts translate to field application rates respectively as 30, 120, 600 and 3000 g per hectare.
3-5 days after application of the tested compound, tomato seeds (cv. Rio Grande) were sown in the wells by hand, at about 2 cm deep. A light cover of vermiculite on the surface was used to avoid dehydration. Plants were irrigated by micro-nebulization 3-4 times per week at a rate of 3 L/m^2, weeded by hand and treated with fertilizers, fungicide and insecticides when needed.
Their resistance against nematode infection was monitored and the efficacy of compounds described herein as a nematicide was measured. Furthermore the phytotoxicity of the test compounds was evaluated.
Efficacy of the compounds described herein as nematicide was measured by giving the roots a percentage of infestation measured as follows. Plants were grown to reach good development of the roots, which corresponds to plants grown to about 10 cm high at about one month after emergence. After removal of the soil from the roots by rinsing with water, the roots were visually inspected and root galls were counted on 4 plants of the set of 12 replicate plants.
Positive control plants were treated with a 10 micromolar concentration of oxamyl (Vydate, 10% SL; the rate of 10 micromolar corresponds to a commercial rate of 20 l/ha), a known nematicide. Negative controls involved double negative controls (no compound, sterile soil), and single negative controls (no compound, with nematode infested soil).

tomato (cv. Rio Grande) = experiment: Pot Assay 2: root development (vigor of roots) of tomato; conditions: visual value 0 to 10 (10 equal to control)
Method: Phytotoxicity of compounds as described herein when used as a nematicide, was measured as follows. […] At that moment, plant emergence was assessed for the plants treated with any of the compounds as described herein, by counting the number of plants per compound-concentration.
Vigor of roots was also assessed once the plants are well established so as not to loose plants. To assess vigor of the plants or roots, a visual value ranging from 0 to 10 (0 no vigor, 10 equal to control) was scored per compound-concentration.

[3] = tested on: root-knot nematode (Meloidogyne spp); experiment: Nematicide field trial on tomato: root galling and yield; conditions: for Average root galling: 0-5 Lamberti scale
Method: (§2) Open field tomatoes (Lycopersicon esculentum, variety incas) were grown on sandy soil with a natural root-knot nematode (Meloidogyne spp) population. Soil samples, collected prior to planting, contained on average 113 J2 juveniles per 100 g soil. A program of 5 applications with intervals of about 14 days was started two days after transplantation.
(§3) An experimental pattern at Complete Randomized Blocks with four replicas was adopted. Besides the experimental products, each test also included an untreated control and a treatment with the standard commercial product VYDATE 10L (10%) applied in accordance to label instructions.
The read-outs are the average yield of the marketable tomatoes per plant (Table 7). The level of nematode attack of the root system at the time of harvesting was assessed by means of the lamberti scoring.

[4] = tested on: root-knot nematode (Meloidogyne spp); experiment: Nematicide field trial on cucumber: root galling and yield; conditions: for Average root galling: 0-5 Lamberti scale
Method: as §2, with “ground grown cucumber (Cucumis sativus cv Carine)” for “field tomatoes (Lycopersicon esculentum, variety incas)”, “8” for “113”, “4” for “5”, “six” for “two”
as §3
[…] The level of nematode attack of the root system at the time of harvesting was assessed by means of the lamberti scoring.

[5] = Product Rate 1 (footnote g ai/ha)
[6] = Product Rate 2 (footnote g ai/ha)
[7] = Product Rate 4 (footnote g ai/ha)
[8] = Product Rate 8 (footnote g ai/ha)

## COC(=O)c1sccc1S(=O)(=O)NC(=O)Nc1nc(C)nc(OC)n1 [XL]
Meloidogyne incognita
  Root knot count, average of the replicate counts: 0
Heterodera nematode; Rate 0.05 mg
  crop height (cm): 12 cm
  crop vigor (max 100%): 90%

## c1coc(-c2nc3ccccc3[nH]2)c1 [XVI]
Meloidogyne incognita
  Root knot count, average of the replicate counts: 14.5
[1]; 10 μM
  number of egg masses (galls) on roots, Replicate 2: 50
[1]; 50 μM
  number of egg masses (galls) on roots, Replicate 2: 40
  number of egg masses (galls) on roots, Replicate 3: 15
Heterodera nematode; Rate 0.05 mg
  crop height (cm): 13 cm
  crop vigor (max 100%): 90%
[2]; Rate 0.05 mg
  # crops emerged (max 18): 18

## CCN(Cc1ccc(Cl)nc1)/C(=C/[N+](=O)[O-])NC [XXIX]
Meloidogyne incognita
  Root knot count, average of the replicate counts: 17.5
[1]; 50 μM
  number of egg masses (galls) on roots, Replicate 1: 50
  number of egg masses (galls) on roots, Replicate 2: 40
  number of egg masses (galls) on roots, Replicate 3: 40
Meloidogyne nematodes; RATE 0.05 mg
  % INF. (% Infestation): 3.8%
Meloidogyne nematodes; RATE 0.2 mg
  % INF. (% Infestation): 1.3%
Meloidogyne nematodes; RATE 1 mg
  % INF. (% Infestation): 2.5%
Meloidogyne nematodes; RATE 5 mg
  % INF. (% Infestation): 5.0%
Tomato (cv. Rio Grande); RATE 0.05 mg
  ROOT DEV.: 7.9
Tomato (cv. Rio Grande); RATE 0.2 mg
  ROOT DEV.: 7.7
Tomato (cv. Rio Grande); RATE 1 mg
  ROOT DEV.: 7.5
Tomato (cv. Rio Grande); RATE 5 mg
  ROOT DEV.: 6.6

## CC(C)NC(=O)N1CC(=O)N(c2cc(Cl)cc(Cl)c2)C1=O [XXV]
Meloidogyne incognita
  Root knot count, average of the replicate counts: 17
[1]; 10 μM
  number of egg masses (galls) on roots, Replicate 1: 50
  number of egg masses (galls) on roots, Replicate 2: 50
[1]; 50 μM
  number of egg masses (galls) on roots, Replicate 1: 30
  number of egg masses (galls) on roots, Replicate 2: 25
  number of egg masses (galls) on roots, Replicate 3: 20
[3]; [5]
  Average yield of marketable fruits: 1.45 kg/plant/pot
  Average root galling: 1.8
[3]; [6]
  Average yield of marketable fruits: 1.33 kg/plant/pot
  Average root galling: 1.3
[4]; Product Rate 500 g ai/ha
  Average yield of marketable fruits: 6.7 kg/plant/pot
  Average root galling: 2.75
[4]; Product Rate 1500 g ai/ha
  Average yield of marketable fruits: 9.1 kg/plant/pot
  Average root galling: 1.75

## CC(C)[C@@H](Nc1ccc(C(F)(F)F)cc1Cl)C(=O)OC(C#N)c1cccc(Oc2ccccc2)c1 (stereo partly drawn) [XXXVI]
Meloidogyne incognita
  Root knot count, average of the replicate counts: 0
Heterodera nematode; Rate 0.05 mg
  crop height (cm): 9 cm
  crop vigor (max 100%): 70%
Heterodera nematode; Rate 0.2 mg
  crop height (cm): 14 cm
  crop vigor (max 100%): 100%
Heterodera nematode; Rate 1 mg
  crop height (cm): 15 cm
  crop vigor (max 100%): 100%
Heterodera nematode; Rate 5 mg
  crop height (cm): 13 cm
  crop vigor (max 100%): 90%
[2]; Rate 0.05 mg
  # crops emerged (max 18): 18
[2]; Rate 0.2 mg
  # crops emerged (max 18): 18
[2]; Rate 1 mg
  # crops emerged (max 18): 18
[2]; Rate 5 mg
  # crops emerged (max 18): 18
[3]; [7]
  Average yield of marketable fruits: 1.43 kg/plant/pot
  Average root galling: 1.8
[3]; [8]
  Average yield of marketable fruits: 1.26 kg/plant/pot
  Average root galling: 1.8
[4]; Product Rate 250 g ai/ha
  Average yield of marketable fruits: 9.3 kg/plant/pot
  Average root galling: 1.88
[4]; Product Rate 500 g ai/ha
  Average yield of marketable fruits: 9.6 kg/plant/pot
  Average root galling: 1.63
